Test results reported in US20200239530A1, “COMPOUNDS AND METHODS OF MODULATING PROTEIN DEGRADATION” (Vividion Therapeutics, Inc., priority 2017, published 2020).

Columns and labels:
Assay in all cases: Cysteine liganding, probe competition
Assay type in all cases: binding
[1] = biological target: T1, DCAF17 DDB1- and CUL4-associated factor 17 (Homo sapiens, UniProt Q5H9S7)
T1 construct: Cells were resuspended in cold PBS on ice and sonicated with a probe sonicator to achieve lysis; endogenous in cells
T1 sequence (Q5H9S7 1-520): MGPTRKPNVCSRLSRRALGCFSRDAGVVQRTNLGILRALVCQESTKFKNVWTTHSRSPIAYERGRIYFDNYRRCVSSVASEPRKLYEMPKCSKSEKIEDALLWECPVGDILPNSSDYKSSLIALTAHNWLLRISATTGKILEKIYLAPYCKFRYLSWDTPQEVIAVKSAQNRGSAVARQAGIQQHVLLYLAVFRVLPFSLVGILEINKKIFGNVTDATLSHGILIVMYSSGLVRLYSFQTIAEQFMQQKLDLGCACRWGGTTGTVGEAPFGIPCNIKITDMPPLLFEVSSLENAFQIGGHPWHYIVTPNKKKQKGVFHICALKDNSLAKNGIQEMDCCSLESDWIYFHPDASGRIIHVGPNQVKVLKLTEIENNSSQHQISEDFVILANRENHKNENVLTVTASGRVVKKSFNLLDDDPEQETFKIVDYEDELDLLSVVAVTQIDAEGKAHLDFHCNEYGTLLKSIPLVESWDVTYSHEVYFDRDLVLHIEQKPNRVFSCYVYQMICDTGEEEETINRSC
How it was run: (§1)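 Read-out is loss of desthiobiotin iodoacetamide labelling at cysteines, measured on streptavidin-enriched tryptic peptides. Compound preincubation ran 1 hr at 25° C in PBS lysate holding 5 mg/ml proteome before the probe was added.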

[2] = biological target: T2, GAMT Guanidinoacetate N-methyltransferase (Homo sapiens, UniProt Q14353)
T2 construct: 200 μL of lysate containing 5 mg/ml proteome was treated with 2 μL of 100× compound stock; endogenous in cells
How it was run: as §1

[3] = biological target: T3, SETD1A Histone-lysine N-methyltransferase SETD1A (Homo sapiens, UniProt O15047)
T3 construct: Cells were resuspended in cold PBS on ice and sonicated with a probe sonicator to achieve lysis; endogenous in cells
How it was run: as §1

[4] = biological target: T4, ACAA2 3-ketoacyl-CoA thiolase, mitochondrial (Homo sapiens, UniProt P42765)
T4 construct: Cells were resuspended in cold PBS on ice and sonicated with a probe sonicator to achieve lysis; endogenous in cells
T4 sequence (P42765 1-397): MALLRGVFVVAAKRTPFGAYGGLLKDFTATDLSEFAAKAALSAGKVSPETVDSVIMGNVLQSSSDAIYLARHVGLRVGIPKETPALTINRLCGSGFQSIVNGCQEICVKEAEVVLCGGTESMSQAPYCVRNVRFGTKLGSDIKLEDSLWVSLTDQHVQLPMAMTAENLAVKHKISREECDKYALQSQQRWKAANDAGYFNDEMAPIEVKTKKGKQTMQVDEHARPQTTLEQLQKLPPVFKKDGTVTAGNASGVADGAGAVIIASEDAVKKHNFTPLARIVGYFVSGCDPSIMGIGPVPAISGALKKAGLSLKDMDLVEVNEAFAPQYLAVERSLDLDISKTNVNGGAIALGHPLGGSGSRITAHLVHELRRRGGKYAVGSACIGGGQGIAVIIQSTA
How it was run: as §1

[5] = biological target: T5, CKMT1B Creatine kinase U-type, mitochondrial (Homo sapiens, UniProt P12532); settings: for Liganded: CKMT1B Res# 316, uniprot P12532
T5 construct: 200 μL of lysate containing 5 mg/ml proteome was treated with 2 μL of 100× compound stock; endogenous in cells
How it was run: as §1

[6] = biological target: T6, HERC1 Probable E3 ubiquitin-protein ligase HERC1 (Homo sapiens, UniProt Q15751)
T6 construct: Cells were resuspended in cold PBS on ice and sonicated with a probe sonicator to achieve lysis; endogenous in cells
How it was run: as §1

T6 sequence (Q15751 whole entry): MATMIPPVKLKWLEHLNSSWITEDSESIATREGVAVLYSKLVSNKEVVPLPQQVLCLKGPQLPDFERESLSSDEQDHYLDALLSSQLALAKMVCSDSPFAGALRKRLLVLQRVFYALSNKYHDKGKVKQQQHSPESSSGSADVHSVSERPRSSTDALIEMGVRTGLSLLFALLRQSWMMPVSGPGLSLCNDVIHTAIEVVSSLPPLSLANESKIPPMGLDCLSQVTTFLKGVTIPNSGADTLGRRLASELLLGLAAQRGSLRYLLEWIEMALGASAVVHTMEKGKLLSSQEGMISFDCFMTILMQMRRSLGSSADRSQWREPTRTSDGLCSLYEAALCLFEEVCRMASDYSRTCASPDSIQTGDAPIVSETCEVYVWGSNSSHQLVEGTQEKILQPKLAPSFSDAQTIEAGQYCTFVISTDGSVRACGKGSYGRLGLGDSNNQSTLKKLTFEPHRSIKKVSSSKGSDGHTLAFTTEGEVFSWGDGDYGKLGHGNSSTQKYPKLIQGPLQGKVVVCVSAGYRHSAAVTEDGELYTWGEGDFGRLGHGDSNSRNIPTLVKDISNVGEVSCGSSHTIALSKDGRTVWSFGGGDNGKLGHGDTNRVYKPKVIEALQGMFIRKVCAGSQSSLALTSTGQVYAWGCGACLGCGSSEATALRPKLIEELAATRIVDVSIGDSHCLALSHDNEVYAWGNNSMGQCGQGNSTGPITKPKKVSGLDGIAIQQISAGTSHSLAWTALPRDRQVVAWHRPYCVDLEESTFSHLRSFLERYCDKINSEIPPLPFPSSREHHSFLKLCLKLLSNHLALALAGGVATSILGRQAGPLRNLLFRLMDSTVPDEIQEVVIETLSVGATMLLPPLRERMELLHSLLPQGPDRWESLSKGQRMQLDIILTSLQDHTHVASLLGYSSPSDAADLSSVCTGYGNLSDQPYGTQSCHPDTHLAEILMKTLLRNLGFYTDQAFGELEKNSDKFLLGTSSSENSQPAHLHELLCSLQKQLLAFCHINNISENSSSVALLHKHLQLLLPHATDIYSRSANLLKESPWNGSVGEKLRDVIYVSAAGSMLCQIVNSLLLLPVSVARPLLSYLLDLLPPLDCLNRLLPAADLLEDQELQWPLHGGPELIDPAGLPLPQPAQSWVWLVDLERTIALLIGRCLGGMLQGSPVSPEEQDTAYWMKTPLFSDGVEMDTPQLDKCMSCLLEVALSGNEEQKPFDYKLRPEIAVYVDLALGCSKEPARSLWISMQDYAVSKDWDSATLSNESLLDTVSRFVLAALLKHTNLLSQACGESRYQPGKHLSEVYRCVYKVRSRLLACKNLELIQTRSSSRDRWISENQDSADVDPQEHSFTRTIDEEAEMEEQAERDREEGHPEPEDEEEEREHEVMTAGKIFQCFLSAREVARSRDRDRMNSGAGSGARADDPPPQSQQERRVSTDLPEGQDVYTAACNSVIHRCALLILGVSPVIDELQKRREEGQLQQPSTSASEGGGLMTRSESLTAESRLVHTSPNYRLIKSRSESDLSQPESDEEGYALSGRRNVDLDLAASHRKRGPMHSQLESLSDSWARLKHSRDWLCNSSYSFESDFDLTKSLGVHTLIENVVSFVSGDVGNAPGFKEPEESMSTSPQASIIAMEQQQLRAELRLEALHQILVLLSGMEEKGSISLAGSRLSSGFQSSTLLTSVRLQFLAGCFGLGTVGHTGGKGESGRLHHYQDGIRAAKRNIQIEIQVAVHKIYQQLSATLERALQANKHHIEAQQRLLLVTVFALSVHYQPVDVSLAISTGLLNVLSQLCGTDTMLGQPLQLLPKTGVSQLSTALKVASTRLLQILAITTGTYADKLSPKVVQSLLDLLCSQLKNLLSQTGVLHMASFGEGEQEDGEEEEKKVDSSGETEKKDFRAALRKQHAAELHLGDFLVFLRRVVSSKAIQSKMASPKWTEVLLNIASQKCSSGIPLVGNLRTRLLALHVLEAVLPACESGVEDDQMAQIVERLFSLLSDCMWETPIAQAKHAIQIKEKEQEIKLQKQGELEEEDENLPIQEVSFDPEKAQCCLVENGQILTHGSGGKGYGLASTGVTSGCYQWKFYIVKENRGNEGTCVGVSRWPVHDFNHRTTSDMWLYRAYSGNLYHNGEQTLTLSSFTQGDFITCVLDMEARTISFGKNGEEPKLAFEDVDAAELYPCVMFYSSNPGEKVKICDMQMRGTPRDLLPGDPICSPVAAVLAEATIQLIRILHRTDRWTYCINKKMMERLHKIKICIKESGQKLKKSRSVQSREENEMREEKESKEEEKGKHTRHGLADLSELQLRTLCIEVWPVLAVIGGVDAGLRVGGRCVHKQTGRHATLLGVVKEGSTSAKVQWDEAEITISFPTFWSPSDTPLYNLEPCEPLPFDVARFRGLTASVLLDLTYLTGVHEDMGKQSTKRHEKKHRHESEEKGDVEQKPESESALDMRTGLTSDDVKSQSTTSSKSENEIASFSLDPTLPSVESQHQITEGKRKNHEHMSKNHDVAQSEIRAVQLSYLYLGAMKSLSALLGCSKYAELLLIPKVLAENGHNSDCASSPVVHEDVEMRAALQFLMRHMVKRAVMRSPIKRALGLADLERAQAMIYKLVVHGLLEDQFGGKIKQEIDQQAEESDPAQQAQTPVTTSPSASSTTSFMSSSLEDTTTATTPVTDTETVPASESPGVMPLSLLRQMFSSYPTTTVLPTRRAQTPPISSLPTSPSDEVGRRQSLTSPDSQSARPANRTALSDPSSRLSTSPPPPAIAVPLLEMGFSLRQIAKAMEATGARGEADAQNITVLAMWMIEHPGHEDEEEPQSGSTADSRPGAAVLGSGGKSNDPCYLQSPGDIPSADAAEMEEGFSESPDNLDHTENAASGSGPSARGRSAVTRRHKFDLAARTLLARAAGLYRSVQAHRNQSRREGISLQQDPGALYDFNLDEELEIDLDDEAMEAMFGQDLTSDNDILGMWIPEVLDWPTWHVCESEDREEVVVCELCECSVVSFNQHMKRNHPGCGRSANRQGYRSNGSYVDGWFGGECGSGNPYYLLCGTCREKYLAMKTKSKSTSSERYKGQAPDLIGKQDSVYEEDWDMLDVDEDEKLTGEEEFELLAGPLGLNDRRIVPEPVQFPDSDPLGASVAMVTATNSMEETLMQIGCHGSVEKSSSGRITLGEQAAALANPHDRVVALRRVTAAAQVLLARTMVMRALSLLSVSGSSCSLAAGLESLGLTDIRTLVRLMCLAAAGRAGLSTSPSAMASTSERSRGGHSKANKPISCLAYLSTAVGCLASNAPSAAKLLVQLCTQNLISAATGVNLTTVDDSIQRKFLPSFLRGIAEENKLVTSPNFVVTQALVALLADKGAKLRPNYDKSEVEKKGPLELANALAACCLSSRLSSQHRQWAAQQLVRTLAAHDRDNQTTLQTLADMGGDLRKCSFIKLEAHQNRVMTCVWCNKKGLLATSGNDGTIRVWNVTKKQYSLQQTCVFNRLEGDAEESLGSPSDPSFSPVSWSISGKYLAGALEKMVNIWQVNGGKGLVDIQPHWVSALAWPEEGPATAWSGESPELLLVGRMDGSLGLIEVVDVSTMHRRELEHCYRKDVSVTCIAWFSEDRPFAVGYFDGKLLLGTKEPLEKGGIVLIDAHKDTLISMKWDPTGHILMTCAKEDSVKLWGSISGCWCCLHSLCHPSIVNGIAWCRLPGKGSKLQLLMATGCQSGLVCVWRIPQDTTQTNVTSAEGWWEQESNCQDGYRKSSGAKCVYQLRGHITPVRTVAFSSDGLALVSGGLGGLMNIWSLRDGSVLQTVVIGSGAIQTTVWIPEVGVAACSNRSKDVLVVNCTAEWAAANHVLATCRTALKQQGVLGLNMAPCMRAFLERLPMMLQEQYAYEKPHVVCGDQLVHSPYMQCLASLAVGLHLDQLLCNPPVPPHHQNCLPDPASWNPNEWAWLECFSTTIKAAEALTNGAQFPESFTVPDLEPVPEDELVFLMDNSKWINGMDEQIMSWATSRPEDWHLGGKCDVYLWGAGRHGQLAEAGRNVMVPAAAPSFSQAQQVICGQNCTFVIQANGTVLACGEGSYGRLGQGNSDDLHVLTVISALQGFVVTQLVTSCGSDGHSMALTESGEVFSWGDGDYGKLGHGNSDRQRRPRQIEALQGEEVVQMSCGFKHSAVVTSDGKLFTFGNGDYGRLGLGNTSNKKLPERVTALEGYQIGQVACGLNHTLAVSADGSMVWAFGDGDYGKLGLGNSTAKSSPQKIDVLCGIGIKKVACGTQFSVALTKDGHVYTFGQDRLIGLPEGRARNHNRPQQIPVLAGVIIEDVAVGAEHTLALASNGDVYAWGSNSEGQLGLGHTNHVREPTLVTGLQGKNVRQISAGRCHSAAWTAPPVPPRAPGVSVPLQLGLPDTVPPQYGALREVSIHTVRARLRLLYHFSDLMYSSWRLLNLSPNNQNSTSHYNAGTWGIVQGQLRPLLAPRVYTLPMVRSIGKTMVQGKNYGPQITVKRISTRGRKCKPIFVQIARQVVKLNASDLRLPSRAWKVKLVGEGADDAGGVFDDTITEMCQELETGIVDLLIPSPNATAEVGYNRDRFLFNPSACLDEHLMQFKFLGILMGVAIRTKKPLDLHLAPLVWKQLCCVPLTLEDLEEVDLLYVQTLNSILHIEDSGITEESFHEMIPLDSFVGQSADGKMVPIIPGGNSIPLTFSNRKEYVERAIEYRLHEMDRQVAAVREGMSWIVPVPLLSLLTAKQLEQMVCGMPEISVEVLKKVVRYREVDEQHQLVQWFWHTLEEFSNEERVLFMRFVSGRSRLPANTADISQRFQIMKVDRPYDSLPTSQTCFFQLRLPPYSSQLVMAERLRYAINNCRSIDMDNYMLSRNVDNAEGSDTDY

Structure (SMILES): COc1ccc2c(c1)CCCN2C(=O)CCl [KB02]
- Liganded ([1]; DCAF17 Res# 20, uniprot Q5H9S7): YES
- 100 Max ([1]; uniprot Q5H9S7): 60.8
- 100 ave ([1]; uniprot Q5H9S7): 40.3
- 500 Max ([1]; uniprot Q5H9S7): 91.7
- 500 ave ([1]; uniprot Q5H9S7): 91.7
- Liganded ([2]; GAMT Res# 91, uniprot Q14353): YES
- Liganded ([3]; SETD1A Res# 1648, uniprot O15047): YES
- Liganded ([4]; ACAA2 Res# 382, uniprot P42765): YES
- Liganded [5]: YES
- Liganded ([6]; HERC1 Res# 56, uniprot Q15751): YES
- Liganded ([6]; HERC1 Res# 1941, uniprot Q15751): YES

Structure (SMILES): O=C(CCl)Nc1cc(C(F)(F)F)cc(C(F)(F)F)c1 [KBO3]
- 100 Max ([1]; uniprot Q5H9S7): −21.2
- 100 ave ([1]; uniprot Q5H9S7): −21.2
- 100 Max ([2]; uniprot Q14353): −9.9
- 100 ave ([2]; uniprot Q14353): −25.93
- 500 ave ([2]; uniprot Q14353): 6.05
- 500 Max ([2]; uniprot Q14353, in % (unit assumed)): 16.85
- 100 Max ([3]; uniprot O15047): 15.12
- 100 ave ([3]; uniprot O15047): −0.4575
- 500 Max ([3]; uniprot O15047): 40.15
- 500 ave ([3]; uniprot O15047): 38.365
- 100 Max ([4]; uniprot P42765): 3.45
- 100 ave ([4]; uniprot P42765): 3.45
- 500 Max ([4]; uniprot P42765): −0.69
- 500 ave ([4]; uniprot P42765): −0.69
- Liganded [5]: YES
- 100 Max ([5]; uniprot P12532): 42.35
- 100 ave ([5]; uniprot P12532): 29.59
- 500 ave ([5]; uniprot P12532): 81.71
- 500 Max ([5]; uniprot P12532, in % (unit assumed)): 86.19
- 500 Max ([6]; uniprot Q15751): 68.4
- 500 ave ([6]; uniprot Q15751): 58.0
